Non-standard residues stand in square brackets, D forms with d. Residues, ends and D or L forms follow the SMILES beside them. pGlu = O=C1CC[C@@H](C(=O)O)N1; Thz = O=C(O)[C@@H]1CSCN1
Key:
[1] = The drug is tested on Bifidobacterium longum subsp. Infantis strain: CCUG52486 for biotransformation. The drug concentrations were measured before and after a 12-h incubation by liquid-chromatography-coupled mass spectrometry (LC–MS); settings: 2 µM
[2] = The drug is tested on Collinsella aerofaciens strain: ATCC25986 for biotransformation. The drug concentrations were measured before and after a 12-h incubation by liquid-chromatography-coupled mass spectrometry (LC–MS); settings: 2 µM
[3] = The drug is tested on Bacteroides cellulosilyticus strain: DSM14838 for biotransformation. The drug concentrations were measured before and after a 12-h incubation by liquid-chromatography-coupled mass spectrometry (LC–MS); settings: 2 µM
[4] = The drug is tested on Anaerococcus hydrogenalis strain: DSM7454 for biotransformation. The drug concentrations were measured before and after a 12-h incubation by liquid-chromatography-coupled mass spectrometry (LC–MS); settings: 2 µM
[5] = The drug is tested on Clostridium sp. strain: fecal isolate for biotransformation. The drug concentrations were measured before and after a 12-h incubation by liquid-chromatography-coupled mass spectrometry (LC–MS); settings: 2 µM
[6] = The drug is tested on Clostridium symbiosum strain: ATCC14940 for biotransformation. The drug concentrations were measured before and after a 12-h incubation by liquid-chromatography-coupled mass spectrometry (LC–MS); settings: 2 µM
[7] = The drug is tested on Dorea formicigenerans strain: ATCC27755 for biotransformation. The drug concentrations were measured before and after a 12-h incubation by liquid-chromatography-coupled mass spectrometry (LC–MS); settings: 2 µM
[8] = The drug is tested on Eubacterium ventriosum strain: ATCC27560 for biotransformation. The drug concentrations were measured before and after a 12-h incubation by liquid-chromatography-coupled mass spectrometry (LC–MS); format: ADME; parameters: dose 2 uM, timepoint 0 vs 12 hours; settings: 2 µM
[9] = The drug is tested on Ruminococcus gnavus strain: ATCC29149 for biotransformation. The drug concentrations were measured before and after a 12-h incubation by liquid-chromatography-coupled mass spectrometry (LC–MS); settings: mediterraneibacter gnavus, 2 µM
[10] = The drug is tested on Ruminococcus lactaris strain: ATCC29176 for biotransformation. The drug concentrations were measured before and after a 12-h incubation by liquid-chromatography-coupled mass spectrometry (LC–MS); settings: 2 µM
[11] = The drug is tested on Subdoligranulum variabile strain: DSM15176 for biotransformation. The drug concentrations were measured before and after a 12-h incubation by liquid-chromatography-coupled mass spectrometry (LC–MS); settings: 2 µM
[12] = The drug is tested on Edwardsiella tarda strain: ATCC23685 for biotransformation. The drug concentrations were measured before and after a 12-h incubation by liquid-chromatography-coupled mass spectrometry (LC–MS); settings: 2 µM
[13] = The drug is tested on Escherichia coli strain: BW25113 for biotransformation. The drug concentrations were measured before and after a 12-h incubation by liquid-chromatography-coupled mass spectrometry (LC–MS); settings: 2 µM
[14] = bifidobacterium adolescentis, 12 h, 2 µM
Description: The drug is tested on Bifidobacterium adolescentis strain: ATCC 15703 for biotransformation. The drug concentrations were measured before and after a 12-h incubation by liquid-chromatography-coupled mass spectrometry (LC–MS)

[15] = bacteroides fragilis, 12 h, 2 µM
Description: The drug is tested on Bacteroides fragilis strain: NCTC 9343 for biotransformation. The drug concentrations were measured before and after a 12-h incubation by liquid-chromatography-coupled mass spectrometry (LC–MS)

[16] = bacteroides fragilis, 12 h, 2 µM; remark: listed apart in the source
Description: The drug is tested on Bacteroides fragilis strain: 3397 (T10) for biotransformation. The drug concentrations were measured before and after a 12-h incubation by liquid-chromatography-coupled mass spectrometry (LC–MS)

[17] = bacteroides fragilis, 12 h, 2 µM; remark: listed apart in the source
Description: The drug is tested on Bacteroides fragilis strain: DS-208 for biotransformation. The drug concentrations were measured before and after a 12-h incubation by liquid-chromatography-coupled mass spectrometry (LC–MS)

[18] = parabacteroides distasonis, 12 h, 2 µM
Description: The drug is tested on Parabacteroides distasonis strain: ATCC8503 for biotransformation. The drug concentrations were measured before and after a 12-h incubation by liquid-chromatography-coupled mass spectrometry (LC–MS)

[19] = anaerostipes sp., 12 h, 2 µM
Description: The drug is tested on Anaerostipes sp. strain: fecal isolate for biotransformation. The drug concentrations were measured before and after a 12-h incubation by liquid-chromatography-coupled mass spectrometry (LC–MS)

[20] = The drug is tested on Bacteroides caccae strain: ATCC43185 for biotransformation. The drug concentrations were measured before and after a 12-h incubation by liquid-chromatography-coupled mass spectrometry (LC–MS); settings: 2 µM

Structure (SMILES)	Bacterial Biotransformation [1]	Bacterial Biotransformation [2]	Bacterial Biotransformation [3]	Bacterial Biotransformation [4]	Bacterial Biotransformation [5]	Bacterial Biotransformation [6]	Bacterial Biotransformation [7]	Bacterial Biotransformation [8]	Bacterial Biotransformation [9]	Bacterial Biotransformation [10]	Bacterial Biotransformation [11]	Bacterial Biotransformation [12]	Bacterial Biotransformation [13]	Bacterial Biotransformation [14]	Bacterial Biotransformation [15]	Bacterial Biotransformation [16]	Bacterial Biotransformation [17]	Bacterial Biotransformation [18]	Bacterial Biotransformation [19]	Bacterial Biotransformation [20]
O=C1CC[C@@H](C(=O)N2CSC[C@H]2C(=O)O)N1 [PIDOTIMOD] ([pGlu]-[Thz]-OH)	Compound NOT metabolized	Compound NOT metabolized	Compound NOT metabolized	Compound NOT metabolized	Compound metabolized	Compound NOT metabolized	Compound NOT metabolized	Compound NOT metabolized	Compound NOT metabolized	Compound NOT metabolized	Compound NOT metabolized	Compound NOT metabolized	Compound NOT metabolized	Compound NOT metabolized	Compound metabolized	Compound metabolized	Compound metabolized	Compound metabolized	Compound NOT metabolized	
NC(CO)(CO)CO.O=C(c1ccccc1)c1ccc2n1CCC2C(=O)O (configuration not stated) [KETOROLAC TROMETHAMINE]	Compound NOT metabolized	Compound NOT metabolized	Compound NOT metabolized	Compound NOT metabolized	Compound metabolized	Compound NOT metabolized	Compound NOT metabolized	Compound NOT metabolized	Compound metabolized	Compound NOT metabolized	Compound metabolized		Compound NOT metabolized	Compound NOT metabolized	Compound metabolized		Compound metabolized		Compound NOT metabolized	Compound NOT metabolized
CC(=O)OCC(=O)[C@@]1(O)[C@@H](C)C[C@H]2[C@@H]3CCC4=CC(=O)C=C[C@]4(C)[C@@]3(F)[C@@H](O)C[C@@]21C [BETAMETHASONE ACETATE]	Compound NOT metabolized		Compound NOT metabolized	Compound NOT metabolized	Compound metabolized	Compound NOT metabolized	Compound NOT metabolized	Compound NOT metabolized	Compound NOT metabolized		Compound NOT metabolized	Compound NOT metabolized	Compound NOT metabolized	Compound NOT metabolized	Compound metabolized	Compound metabolized	Compound metabolized		Compound NOT metabolized	
Cc1ccc(-c2nc3ccc(C)cn3c2CC(=O)N(C)C)cc1 [ZOLPIDEM]	Compound NOT metabolized	Compound NOT metabolized	Compound NOT metabolized	Compound NOT metabolized	Compound NOT metabolized	Compound NOT metabolized	Compound NOT metabolized	Compound NOT metabolized	Compound NOT metabolized	Compound NOT metabolized	Compound NOT metabolized	Compound NOT metabolized	Compound NOT metabolized	Compound NOT metabolized	Compound NOT metabolized	Compound NOT metabolized	Compound NOT metabolized		Compound NOT metabolized	Compound NOT metabolized
CCN(C)C(=O)Oc1cccc([C@H](C)N(C)C)c1.O=C(O)C(O)C(O)C(=O)O [RIVASTIGMINE TARTRATE]	Compound NOT metabolized	Compound NOT metabolized	Compound NOT metabolized	Compound NOT metabolized	Compound NOT metabolized	Compound NOT metabolized	Compound NOT metabolized	Compound NOT metabolized	Compound NOT metabolized	Compound NOT metabolized	Compound NOT metabolized	Compound NOT metabolized	Compound NOT metabolized	Compound NOT metabolized		Compound NOT metabolized	Compound NOT metabolized	Compound NOT metabolized	Compound NOT metabolized	Compound NOT metabolized
CCCCC1=NC2(CCCC2)C(=O)N1Cc1ccc(-c2ccccc2-c2nnn[nH]2)cc1 [IRBESARTAN]	Compound metabolized	Compound metabolized	Compound metabolized	Compound metabolized	Compound metabolized	Compound metabolized	Compound metabolized	Compound NOT metabolized	Compound NOT metabolized	Compound metabolized	Compound metabolized	Compound metabolized	Compound metabolized	Compound metabolized	Compound metabolized		Compound metabolized	Compound metabolized	Compound metabolized	Compound NOT metabolized
CC1=C(CC(=O)O)c2cc(F)ccc2/C1=C\c1ccc([S+](C)[O-])cc1 (configuration not stated)	Compound NOT metabolized	Compound NOT metabolized	Compound NOT metabolized	Compound NOT metabolized	Compound NOT metabolized	Compound NOT metabolized	Compound NOT metabolized	Compound NOT metabolized	Compound NOT metabolized	Compound NOT metabolized	Compound NOT metabolized	Compound NOT metabolized	Compound NOT metabolized	Compound NOT metabolized	Compound NOT metabolized	Compound NOT metabolized	Compound NOT metabolized	Compound NOT metabolized	Compound NOT metabolized	
C=CC[C@@H]1/C=C(\C)C[C@H](C)C[C@H](OC)[C@H]2O[C@@](O)(C(=O)C(=O)N3CCCC[C@H]3C(=O)O[C@H](/C(C)=C/[C@@H]3CC[C@@H](O)[C@H](OC)C3)[C@H](C)[C@@H](O)CC1=O)[C@H](C)C[C@@H]2OC.O [TACROLIMUS]	Compound NOT metabolized	Compound metabolized	Compound metabolized	Compound metabolized	Compound metabolized	Compound metabolized	Compound NOT metabolized	Compound NOT metabolized	Compound metabolized	Compound metabolized	Compound metabolized	Compound NOT metabolized	Compound metabolized	Compound NOT metabolized	Compound metabolized	Compound NOT metabolized	Compound NOT metabolized	Compound metabolized	Compound metabolized	

Source: ChEMBL document CHEMBL5303573, “Mapping human microbiome drug metabolism by gut bacteria and their genes” (Nature, 2019)
